Data set [1] is described as follows: Toxicokinetics following IV & PO dosing. The format is in vivo, dog. The conditions noted are these: beagle dogs. The source says:
Supplementary Fig. 19. Toxicokinetic (TK) beagle dog data.

For another data set, the system named is beagle dogs. Put plainly: Two-day oral dose toxicity and pharmacokinetic study (non-GLP). The format is in vivo. As for the experimental part: SRP-001 was supplied by Olon Ricerca Bioscience as an off-white powder and then prepared as dosing suspensions for oral administration via gavage (Calvert Labs/Altasciences, Scott Township, PA USA). Six experimentally non-naïve male Beagle dogs (3/dose), at least 7 months old and weighing 7.2 to 10.2 kg prior to treatment initiation, were administered 100 or 900 mg/kg/d SRP-001. Animals were dosed three times daily (3–5 h between doses) for 2 d. Mortality/morbidity was performed twice daily. On the day of dosing, animals were observed prior to each dose administration and approximately 1–3 h after each dose. Animals were also observed once on day 3. Body weights were recorded for all animals prior to the first dose administration on days 1 and 3, and food consumption was recorded daily. Blood for bioanalytical evaluation was collected at selected timepoints on day 1. Following the completion of the study, surviving animals were not euthanized and were returned to the Calvert colony. […]
Following a single administration of 900 mg SRP-001 oral suspension in the fed state, plasma concentrations of SRP-001 were observed from the first sampling time-point of 1 h post-dose for all subjects. […] In a two-day oral dose toxicity and pharmacokinetic (PK) study of […] in Beagle dogs, peak plasma concentrations of SRP-001 were detected within a 30-min to 1-h window post-administration. […]

Data set [2] concerns Rat liver and stomach cells. Put plainly: In vivo mammalian alkaline comet assay. More on the design: species or system rats. As for the experimental part:
Male Sprague–Dawley rats were orally administered SRP-001 at 500, 1000, or 2000 mg/kg/dose for two consecutive days at a dose volume of 10 mL/kg/dose (Bioreliance, Rockville, MD USA). The vehicle control was 10% Labrasol, 10% DMSO, and 80% PEG400. The positive control for the Comet assay, ethyl methanesulfonate (EMS), was orally administered at 200 mg/kg/dose for two consecutive days at a dose volume of 10 mL/kg/dose. […] Animals were euthanized 3–4 h after the last dose administration. The liver and glandular stomach were collected and processed for comet evaluation.
The group mean % tail DNA for the vehicle control was within the 95% control limit of the study historical data range, with one animal (#160) exceeding the individual animal 95% control limit but within the minimum/maximum range. Additionally, three animals (#173, 174, and 175) in the mid-dose (1000 mg/kg/dose) group likewise exceeded the individual animal 95% control limit but were within the minimum/maximum range.
The group mean % tail DNA for the vehicle control was within the 95% control limit of the study historical data range, with one animal (#158) exceeding both the individual animal 95% control limit and minimum/maximum ranges. One animal (#171) in the mid-dose (1000 mg/kg/dose) group and one animal (#180) in the high-dose (2000 mg/kg/dose) group exceeded just the 95% control limit range but were within the minimum/maximum range. One animal (#170) in the mid-dose (1000 mg/kg/dose) group and one animal (#179) in the high-dose (2000 mg/kg/dose) group exceeded both the individual animal 95% control limit and minimum/maximum ranges.

The test system of data set [3] is Peripheral blood reticulocytes. Put plainly: In vivo mammalian micronucleus assay. More on the design: species or system rats. How it is done: Male rats were dosed at 500, 1000, and 2000 mg/kg/d once per day on two consecutive days at 10 mL/kg via oral gavage using 10% labrasol, 10% DMSO, and 80% PEG400 as the vehicle (Bioreliance, Rockville, MD USA). Approximately 48 h after the second dose administration, peripheral blood was collected for flow cytometric analysis of micronuclei. There was no significant increase in the incidence of micronuclei in the test article-dosed animals compared to the concurrent vehicle control. The vehicle control value was compatible with the historical range of % micronucleated reticulocytes (MnRETs). There was a statistically significant increase in MnRETs in the positive control compared to the concurrent vehicle control.

Data set [4] can be described thus: Stability of API and oral nanosuspension. The format is physicochemical. How it is done: The drug therapeutic candidate is manufactured in a two-step process (Latitude Pharmaceuticals, Inc., San Diego, CA, USA). First, SRP-001 is jet milled. Second, the milled API is dispersed in a solution comprising 1% hydroxypropyl cellulose (1% HPC) and sterile water for injection and subjected to wet milling. The target particle size is approximately D90 0.15 μm. […] An oral nanoparticle suspension containing 100 mg/mL SRP-001 in aqueous 1% HPC preserved with 0.1% sodium benzoate was manufactured for use in nonclinical studies as Lot LPI2021028 and stored at 5 °C ± 3 °C. […] The same formulation as above was manufactured under cGMP for use in clinical studies as Lot LPI2021031 and stored at 5 °C ± 3 °C. […] This lot has been placed on stability at 5 °C, 25 °C/60%RH, and 40 °C/75%RH. Finally, an appearance-matched placebo consisting of 2% microcrystalline cellulose in aqueous 1% HPC preserved with 0.1% sodium benzoate and 0.05% EDTA disodium dihydrate was manufactured under cGMP for use in clinical studies. The above oral suspensions were manufactured by Latitude Pharmaceuticals Inc. (San Diego, CA, USA).

“Also recorded” adds a separate entry of the source.

Consider `CCN(CC)C(=O)c1ccccc1S(=O)(=O)NCC(=O)Nc1ccc(O)cc1` [SRP-001, N,N-diethyl-2-[[2-(4-hydroxyanilino)-2-oxo-ethyl]sulfamoyl]benzamide], for which, in data set [1], the Exposure versus dose entry was “dose-dependent response” and the “Time of Cmax” value fell in the range of 15 to 30 min. In the data set on beagle dogs (3 times daily for 2 days), this compound gave a Dose tolerated of 900 mg/kg/day. For the same compound, the “Time of peak plasma concentrations post-administration” value in the data set with beagle dogs (dog, in vivo) is listed as 30-min to 1-h. In addition, in data set [2] (500, 1000, 2000 mg/kg/dose), the “% tail DNA, glandular stomach” value was “No statistically significant increases” and the “% tail DNA, liver” value was “No statistically significant increases”. The “Comet assay result (DNA damage in liver and stomach)” value in data set [2] (up to 2000 mg/kg/dose, two consecutive days, oral) was “negative; also recorded: negative (non-DNA damaging)”. In data set [3] (500, 1000, 2000 mg/kg/day, 2 days, oral gavage), the Micronucleus assay result was “negative (non-clastogenic); also recorded: Under the conditions of this study, the administration of SRP-001 at doses up to and including a dose of 2000 mg/kg/day was concluded to be negative in the Micronucleus assay”. The “% RETs (reticulocytes)” value in data set [3] (treatment groups versus vehicle) is reported as “Statistically significant decreases”. Also, the “Stability of the API” value in data set [4] (25 °C/60%RH) is “at least 9 months”. The “Stability of the API” value in data set [4] (40 °C/75%RH) is given as at least 6 months.
